According to patent US20090068290A1, “BIFEPRUNOX DOSES FOR TREATING SCHIZOPHRENIA” (priority 2006, published 2009):

Experiments:
Type in all cases: in vivo, human
[1] = test system: adult subjects with schizophrenia; assay: PANSS responder rates, Clinical Study Three
Experimental: There were four treatment arms in this study, approximately 144 subjects per arm. […] After completing the Single-Blind Placebo Lead-in Period of at least three days, bifeprunox-treated subjects were titrated from 0.25 mg up to 20 mg/day or 30 mg/day according to a standardized titration scheme over a seven- or eight-day period, respectively. When the assigned dose was reached, subjects were maintained at that dose for the remainder of the six week treatment period. […] Subjects were hospitalized (if not already inpatients) after eligibility for study entry was verified, starting from the Screening Visit until at least 10 days after Baseline. Subjects could be hospitalized longer than 10 days if considered medically necessary by the Investigator. Rating scale assessments for efficacy and abnormal movement disorders were done weekly except for Week 5. Safety assessments were performed at Screening, during treatment and at the end of the study. Subject satisfaction with study medication was assessed at Week 6. Samples of whole blood were obtained at Weeks 2, 4, and 6 for determination of bifeprunox in plasma.
CLINICAL STUDY THREE. A PANSS responder was defined as a subject whose PANSS total score decreased by 20% or more from Baseline to Endpoint. As exploratory analyses, responder rates were also analyzed using a 30%, 35%, 40%, and 50% definition of responder.

[2] = test system: adult subjects with schizophrenia; assay: BPRS total score, Clinical Study One; conditions: Risperidone 6 mg, ITT population
Experimental: There were five treatment groups in this study. […] Study medication was administered once daily. After Baseline measurements were performed, the titration phase was begun. Bifeprunox treated subjects were titrated up to 5 mg, 10 mg or 20 mg according to a standardized titration schedule (Day 1: 0.125 mg, Day 2: 0.25 mg, Day 3: 0.5 mg, Day 4: 1.0 mg, Day 5: 2.0 mg, Day 6: 5.0 mg, Day 7: 10.0 mg, Day 8: 20 mg). When the assigned dose was reached, subjects were maintained at that dose for the remainder of the six-week treatment period.
The change in the Positive and Negative Symptom Scale (PANSS) total score, from baseline to endpoint, was the primary outcome measure. Secondary efficacy measures included: PANSS positive, PANSS negative, PANSS general psychopathology (GPP) score, PANSS-derived Brief Psychiatric Rating Scale (BPRS) score, Clinical Global Impressions-Severity of Illness (CGI-S), CGI-Improvement (CGI-I) scores, and responder rates. Safety and tolerability evaluations included extrapyramidal symptoms (EPS), weight gain, lipid profile, and serum prolactin.

[3] = test system: adult subjects with schizophrenia; assay: PANSS negative symptom subscale score, Clinical Study Two; conditions: Risperidone 6 mg, LOCF, ITT
Experimental: (§1) Rating scale assessments were performed weekly, except for week 5, to measure the change from baseline to endpoint of the PANSS total score. Other assessments included: PANSS positive symptom subscale score, PANSS negative symptom subscale score, PANSS general pschopathology subscale score, BPRS total score, BPRS psychosis score, the CGI-S score, the CGI-I score, responder rates based on the PANSS total score, and the Calgary Depression Scale for Schizophrenia (CDSS). […]
(§2) Subjects who completed this study had the option to continue in the long-term. […] Risperidone-treated subjects were titrated from 2 mg to 6 mg daily over a three-day period and were subsequently maintained at 6 mg/day for the remainder of the treatment period. […] Blood samples were also obtained at Screening/Baseline, Week 3, and Week 6 for clinical laboratory assessments.

[4] = test system: adult subjects with schizophrenia; assay: BPRS total score, Clinical Study Two; conditions: LOCF; for Change from Baseline in BPRS Total Score, Mean (SD) / Change from Baseline in BPRS Total Score, Median: Risperidone 6 mg, ITT population
Experimental: as §1
Subjects who completed this study had the option to continue in the long-term. […] Blood samples were also obtained at Screening/Baseline, Week 3, and Week 6 for clinical laboratory assessments.

[5] = test system: adult subjects with schizophrenia; assay: PANSS responder rate, Clinical Study Two; conditions: risperidone 6 mg
Experimental: Notable differences were also observed between the 30 mg bifeprunox group and placebo for the change from baseline to endpoint in PANSS general psychopathology subscale score, BPRS total score, BPRS psychosis cluster score, PANSS responder rate, and CGI-I responder rate. […] A CGI-I responder refers to a subject who was categorized as “very much improved” or “much improved” in the CGI Global Improvement scale at endpoint. […]
as §2, with “assessments. […]” for “assessments.”

## Cc1cc2c(s1)Nc1ccccc1N=C2N1CCN(C)CC1 [Olanzapine, olanzapine, reference compound]
[1]; 15 mg, Week 6/Endpoint, LOCF
  PANSS 20% definition response rate No, %: 46%
  PANSS 20% definition response rate Yes, %: 54%
[1]; olanzapine 15 mg, Endpoint LOCF
  20% PANSS responder rate: 54%

## Cc1nc2n(c(=O)c1CCN1CCC(c3noc4cc(F)ccc34)CC1)CCCC2 [Risperidone, risperidone, reference compound]
[2]; Endpoint LOCF
  Change from Baseline in BPRS Total Score, Mean (S.D.): −9.2 (8.9)
  Change from Baseline in BPRS Total Score, Median: −9
[2]; Week 1, LOCF
  Change from Baseline in BPRS Total Score, Mean (S.D.): −4.6 (6.5)
  Change from Baseline in BPRS Total Score, Median: −3
[2]; Week 2, LOCF
  Change from Baseline in BPRS Total Score, Mean (S.D.): −7.6 (8.4)
  Change from Baseline in BPRS Total Score, Median: −7
[2]; Week 3, LOCF
  Change from Baseline in BPRS Total Score, Mean (S.D.): −9.1 (8.4)
  Change from Baseline in BPRS Total Score, Median: −9
[2]; Week 4, LOCF
  Change from Baseline in BPRS Total Score, Mean (S.D.): −8.6 (9.0)
  Change from Baseline in BPRS Total Score, Median: −7
[3]; Week 1
  Change from Baseline in PANSS Negative Symptom Subscale Score, Mean (SD): −1.5 (3.0)
  Change from Baseline in PANSS Negative Symptom Subscale Score, Median: −2
[3]; Week 2
  Change from Baseline in PANSS Negative Symptom Subscale Score, Mean (SD): −2.9 (4.3)
  Change from Baseline in PANSS Negative Symptom Subscale Score, Median: −3
[3]; Week 3
  Change from Baseline in PANSS Negative Symptom Subscale Score, Mean (SD): −3.3 (4.9)
  Change from Baseline in PANSS Negative Symptom Subscale Score, Median: −3
[3]; Week 4
  Change from Baseline in PANSS Negative Symptom Subscale Score, Mean (SD): −3.8 (5.5)
  Change from Baseline in PANSS Negative Symptom Subscale Score, Median: −4
[3]; Week 6/Endpoint
  Change from Baseline in PANSS Negative Symptom Subscale Score, Mean (SD): −3.8 (5.5)
  Change from Baseline in PANSS Negative Symptom Subscale Score, Median: −3
[4]; Week 1
  Change from Baseline in BPRS Total Score, Mean (SD): −5.5 (6.3)
  Change from Baseline in BPRS Total Score, Median: −5
[4]; Week 2
  Change from Baseline in BPRS Total Score, Mean (SD): −9.1 (8.5)
  Change from Baseline in BPRS Total Score, Median: −9
[4]; Week 3
  Change from Baseline in BPRS Total Score, Mean (SD): −10.7 (9.4)
  Change from Baseline in BPRS Total Score, Median: −11
[4]; Week 4
  Change from Baseline in BPRS Total Score, Median: −13
[4]; Week 6/Endpoint
  Change from Baseline in BPRS Total Score, Mean (SD): −12.2 (11.7)
  Change from Baseline in BPRS Total Score, Median: −13
[4]; risperidone 6 mg, ITT
  mean change (SD) from Baseline to Endpoint in BPRS total score: −12.2 (11.7)
[5]; Endpoint LOCF
  PANSS 20% responder rate: 54%
  PANSS 30% responder rate: 31%
[5]; LOCF, ITT
  PANSS Responder at Endpoint, 30% Definition Responder, No: 104 (69%) n (%)
  PANSS Responder at Endpoint, 30% Definition Responder, Yes: 47 (31%) n (%)
  PANSS Responder at Week 6/Endpoint, 20% Definition, No: 69 (46%) n (%)
  PANSS Responder at Week 6/Endpoint, 20% Definition, Yes: 78 (54%) n (%)
